# Test results: patent US20260325490A1, “ORAL FORMULATIONS OF EDARAVONE AND IMPROVED METHOD OF MANUFACTURING THEREOF” (BDR PHARMACEUTICALS INTERNATIONAL PRIVATE LIMITED, priority 2022, published 2026)
# How the values were obtained:
# [1] = Chemical stability of Edaravone (hydrolysis, oxidation); type: physicochemical; conditions: aqueous solution, compared to the powdered form
# Text: It may be noted that the efficacy of Edaravone has seen an undisputed success since its inception in the therapeutic category of stroke management. Edaravone per se has wide applicability and has potential to be used for more therapeutic indications. The injectable dosage form has been a limiting factor in case of increased use of this product. Importantly, developing an oral dosage form of Edaravone is a challenging process due to its less soluble and less permeable (BCS Class-IV product) nature. Further, an injectable dosage form has inherent difficulty in terms of its usage post hospitalization. […] The inventors of the present invention during development have noted that it was difficult to stabilize Edaravone.
# [2] = cited from earlier work
# [3] = cited from earlier work; remark: listed apart in the source
smiles,measurement,setting,value
"CC1=NN(c2ccccc2)C(=O)C1 [Edaravone, 3-methyl-1-phenyl-2-pyrazolin-5-one]",Decomposition by oxidation,[1],easily decompose by oxidation
same,Lipid permeability,[2],lower lipid permeability
same,Bio-pharmaceutics Classification System (BCS) class,[2]; poor solubility in water and lower lipid permeability,Class IV
same,Solubility in acetic acid,[3]; acetic acid,freely soluble
same,Solubility in diethyl ether,[3]; diethyl ether,slightly soluble
same,Solubility in ethanol,[3]; ethanol,freely soluble
same,Solubility in methanol,[3]; methanol,freely soluble
same,Solubility in water,[3]; water,slightly soluble
